According to patent publication US7737182B2, “Pharmaceuticals for xerosis” (Taisho Pharmaceutical Co., Ltd., priority 2001, dated 2010):

Legend:
[1] = system: Fifty-week-old BALB/c male mice; assay: Aged mouse skin's barrier function, treatment test, TEWL (Test Example 7); type: in vivo; conditions: 50-week-old mice; 0.0001% in ethanol, 200 μL, once a day for 3 days
Procedure: Fifty-week-old BALB/c male mice (eight in each group) were shaven in a rostral dorsolateral area of 4 cm^2 (2 cm×2 cm) with electric clippers. Starting on the next day, a solvent (ethanol, 200 μL) or a drug dissolved in the solvent (compound No. 7 or PGD2, each being at 0.0001% in an amount of 200 μL) was applied to the shaven site for 3 days on once-a-day basis.
On the day next to the third application of the solvent or drug, TEWL at the same site was measured with Tewameter (TM210 of Courage & Khazawa, Germany) to evaluate the drug's action.

BALB/c male mice [2] = assay: Mouse skin's barrier function, treatment test, TEWL (Test Example 5); type: in vivo; conditions: barrier destroyed with acetone/diethyl ether; 0.01% in ethanol, 100 μL, once a day for 2 days
Procedure: Six-week-old BALB/c male mice in groups of eight were shaven in a rostral dorsolateral area of 4 cm^2 (2 cm×2 cm) with electric clippers and the shaven area was covered for 60 seconds with an absorbent cotton (2 cm×2 cm) impregnated with a 1:1 liquid mixture of acetone and diethyl ether. This treatment for destroying the skin's barrier function was performed for 3 consecutive days on once-a-day basis. Starting on the day next to completion of the treatment for barrier destruction at day 3, a solvent (ethanol, 100 μL) or a drug dissolved in the solvent (compound No. 7, PGD2, PGF2α, or PGE1, all being at 0.01% in an amount of 100 μL) was applied to the barrier destroyed site for 2 days on once-a-day basis. On the day next to the second application of the solvent or drug, the transepidermal water loss (TEWL) at the same site was measured with Tewameter (TM210 of Courage & Khazawa, Germany) to evaluate the drug's action.

human platelets = assay: Suppression of ADP-induced aggregation of human platelets; type: cell-based; conditions: human platelet-rich plasma, ADP (3 μM), Born method
Procedure: (A) Using the active ingredient of the present invention (compound No. 7) and PGD2 as a control for comparison, prostaglandin D receptor binding selectivity was determined with reference to the platelet aggregation suppressing action as the prostaglandin D receptor agonist action. 1. Human Platelet Aggregation Suppressing Action Suppression of ADP-Induced Aggregation of Human Platelets
The test was performed on purchased platelet-rich plasma (PRP) (6×10^8 platelets/mL) and platelet aggregation was measured based on the Born method (Nature, vol. 194, p. 927, 1962). To 100 μL of PRP, 5 μL of a 1 nM-3 μM test drug solution in ethanol was added and the mixture was incubated at 37° C. for 1 minute with stirring at 1000 rpm. To the resulting mixture, 5 μL of an aggregation inducer [ADP (3 μM)] was added to induce platelet aggregation and a maximum percent aggregation (a maximum change in light transmittance that occurred within 5 minutes after the induction of platelet aggregation) was determined by an aggregometer. The percent suppression of aggregation by each test drug was calculated from the maximum percent aggregation by the test drug as relative to the maximum percent aggregation by ethanol instead of the test drug solution and IC50 values were determined from the constructed dose-response curve.

BALB/c male mice [3] = assay: Mouse skin's barrier function, preventive test, TEWL (Test Example 6); type: in vivo; conditions: cohabitation with dermatitic NC/Nga mice; 0.01% in ethanol, 100 μL, once a day for 7 days
Procedure: Six-week-old BALB/c male mice in groups of six were shaven in a rostral dorsolateral area of 4 cm^2 (2 cm×2 cm) with electric clippers and kept in the same cage as NC/Nga mice that had developed dermatitis. From the day next to the start of cohabitation, a solvent (ethanol, 100 μL) or a drug dissolved in the solvent (compound No. 7, PGD2, PGF2α, or PGE1, all being at 0.01% in an amount of 100 μL) was applied to the shaven site for 7 days on once-a-day basis.
On the day next to the seventh application of the solvent or drug, the transepidermal water loss (TEWL) at the same site was measured with Tewameter (TM210 of Courage & Khazawa, Germany) to evaluate the drug's action, with the solvent-applied group being used as the control group.

prostaglandin D receptor = target: T1, prostaglandin D receptor (Homo sapiens, UniProt Q13258); assay: Antagonism by BW A868C of the suppression of ADP-induced human platelet aggregation; type: cell-based; conditions: final concentration 1000 nmol/L, human PRP, ADP 3 μmol/L
T1 construct: separate the supernatant (PRP, or platelet-rich plasma); endogenous in cells; host or cells: human platelets (platelet-rich plasma from healthy male donors)
T1 sequence (Q13258 1-359): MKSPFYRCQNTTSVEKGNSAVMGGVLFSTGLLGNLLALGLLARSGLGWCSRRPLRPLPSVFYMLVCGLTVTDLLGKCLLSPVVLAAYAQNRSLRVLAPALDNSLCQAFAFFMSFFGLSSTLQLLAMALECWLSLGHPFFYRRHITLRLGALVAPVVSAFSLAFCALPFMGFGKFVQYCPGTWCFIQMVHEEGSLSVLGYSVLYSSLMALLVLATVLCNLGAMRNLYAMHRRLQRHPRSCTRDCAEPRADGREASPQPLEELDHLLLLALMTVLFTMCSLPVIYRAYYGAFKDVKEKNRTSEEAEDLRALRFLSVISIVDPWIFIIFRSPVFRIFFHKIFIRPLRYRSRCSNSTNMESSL
Procedure: The prostaglandin D receptor selective antagonist used in the test was ((+/−)-3-benzyl-5-(6-carboxyhexyl)-1-(2-cyclohexyl-2-hydroxyethylamino)-hydantoin) (hereunder designated BW A868C) (Sigma-Aldrich Japan K.K.)
BW A868C was diluted with ethanol to final concentrations of 0.03 μmol/L, 0.1 μmol/L, 0.3 μmol/L, 1 μmol/L, 3 μmol/L and 10 μmol/L.
Compound No. 7 and PGD2 were diluted with ethanol to 287 nmol/L and 300 nmol/L, respectively, for subsequent use.
Blood was taken from the cubital veins of human healthy males and sampled into a tube containing 3.13% sodium citrate. The blood sample was centrifuged at 1,000 rpm for 10 minutes at 20° C. to separate the supernatant (PRP, or platelet-rich plasma) and the residue was further centrifuged at 3,000 rpm for 10 minutes at 20° C. to separate the supernatant (PPP, or platelet-poor plasma). The platelet count of PRP was appropriately diluted with PPP to 30×10^4 platelets/μL for subsequent use.
Platelet aggregation was measured with a platelet aggregation measuring instrument (PAM-8C; MC MEDICAL Co., LTD.) by the Born method (Nature, vol. 194, p. 927, 1962). A portion (273 μL) of PRP (for the BW A868C groups, 1 μL of BW A868C was added at varying concentrations) was preincubated at 37° C. for 3 minutes with stirring at 1,000 rpm. After the preincubation, 1 μL of ethanol or a test substance (compound No. 7: final concentration at 95.7 nmol/L; PGD2: final concentration at 1000 nmol/L) was added and the mixture was incubated at 37° C. for 3 minutes with stirring at 1000 rpm. After the incubation, 25 μL of ADP (final concentration at 3 μmol/L) was added to induce platelet aggregation and a maximum percent aggregation for 5 minutes was measured.

guinea pig platelets = assay: Suppression of ADP-induced aggregation of guinea pig platelets; type: cell-based; conditions: guinea pig platelet-rich plasma, ADP (3 μM)
Procedure: Ten-week-old Hartley male guinea pigs were anesthetized with pentobarbital (30 mg/kg, i.p. injected) and a total of 20 mL of blood was sampled into a syringe containing 2.0 mL of 3.8% sodium citrate. The blood was immediately centrifuged at 900 rpm for 10 minutes at 20° C. to recover the supernatant PRP. By further centrifugation at 3000 rpm for 10 minutes at 20° C., the supernatant PPP was recovered. The platelet count of PRP was diluted with PPP to 30×10^4 platelets/μL for subsequent use.
For platelet aggregation measurement, a platelet aggregation measuring instrument (PAM-8C) was employed. To 274 μL of PRP, 1 μL of a 0.287-95.7 nM test drug solution in ethanol was added and the mixture was incubated at 37° C. for 3 minutes with stirring at 1000 rpm. After the incubation, 25 μL of ADP (3 μM) was added to induce platelet aggregation and a maximum percent aggregation for 5 minutes was measured.
The percent suppression of aggregation by each test drug was calculated from the maximum percent aggregation by the test drug as relative to the maximum percent aggregation by ethanol instead of the test drug solution and IC50 values were determined from the constructed dose-response curve.

CCCCC[C@H](O)/C=C/[C@H]1C(=O)C[C@H](O)[C@@H]1C/C=C\CCCC(=O)O [PGD2, prostaglandin D2, reference compound]
transepidermal water loss (TEWL) compared to the control group [1]: no significant difference from the control group | transepidermal water loss (TEWL) compared to the solvent-applied control group (BALB/c male mice [2]): no significant difference from the control group | IC50 (human platelets): 11 nM | transepidermal water loss (TEWL) compared to the control group (BALB/c male mice [3]): significant decrease in TEWL | platelet aggregation suppressing action compared with control group (ethanol) (prostaglandin D receptor): significant platelet aggregation suppressing action | IC50 (guinea pig platelets): 54.3 ± 23 nM
